Assays:
[1] = Administration route study in hairless rats (Example 4); format: in vivo; conditions: for AUC / Cmax / Tmax: rat, blood
Protocol: Hairless rats were used as experimental animals. After oral administration of a drug solution (2.0 ml) containing 2.0 mg of zolmitriptan, blood was collected at a desired time, each medicinal component was extracted according to a conventional method, then blood concentration was quantified by high performance liquid chromatography (LC-MS/MS).
Hairless rats were used as experimental animals. After intravenous administration of a drug solution (10 μl) containing 2 mg of zolmitriptan, blood was collected at a desired time, each medicinal component was extracted according to a conventional method, then blood concentration was quantified by high performance liquid chromatography (LC-MS/MS).
Hairless rats were used as experimental animals. After intravenous administration of a drug solution (200 μl) containing 2 mg of zolmitriptan, blood was collected at a desired time, each medicinal component was extracted according to a conventional method, then blood concentration was quantified by high performance liquid chromatography (LC-MS/MS).
Hairless rats were used as experimental animals. A drug patch was affixed on the flank side of skin of experimental animals that had undergone microporation treatment under the desired conditions. In this study, microporation condition of transdermal microporation was 400 pores/cm^2, 5.2 mJ/filament. The administration side was 1 cm^2. During the period where the patch was affixed, and after it had adhered, blood was collected at a desired time, each medicinal component was extracted according to a conventional method, then blood concentration was quantified by high performance liquid chromatography (LC-MS/MS). A Patch formulation of this study was 2 mg Zolmitriptan, sucrose 0.5 mg, AA 4 mg, 1 cm^2 non-woven matrix (EH-1212, WHC=4 mg/cm^2),
The given bioavailability of Table 5 is absolute bioavailability against IV injection.

[2] = tested on: skin; assay: Skin irritation at different poration conditions (Examples 7-9); format: in vivo, guinea pigs
Protocol: A skin irritation examination was performed following the patch removal. The skin irritation examination scale was an assessment of the skin directly under the matrix.
This example describes various effects of filament density. To investigate the effect of filament density on PK profile and side effects (pain by poration and skin irritation), these studies were conducted. The filament density mainly affects the area to be utilized for the transfer of body fluid and ingredients in between skin and patch. The range of filament density was 100 filaments/cm^2 to 400 filaments/cm^2, and the poration energy was from 3 to 4 mJ/filament.
This example describes various effects to heating energy. The poration energy is related to the pore shape such as depth and width.
This example describes the selection of a desirable filament array size. Assuming the higher dose than 2 mg dose with the conditions 400 filaments/cm^2 filament density and 4 or 5 mJ/filament energy, filament array size may need to be made bigger. The range of dose was 0.5 to 4 mg, and the range of filament array size was 1.0 to 2.0 cm^2.

[3] = Administration route study in hairless rats (Example 4); format: in vivo; conditions: Group 2: 2 mg zolmitriptan
[4] = Group 1: 2 mg zolmitriptan, oral administration
[5] = Group 3: 2 mg zolmitriptan, intravenous injection
[6] = topical or ocular, Group 4: 2 mg zolmitriptan, transdermal microporation (400 pores/cm^2, 5.2 mJ/filament, 1 cm^2)
[7] = Table 13 # 1: 100 filaments/cm^2, 3 mJ/filament, 1.0 cm^2, 2.00 mg patch
[8] = Table 13 # 2: 200 filaments/cm^2, 3 mJ/filament, 1.0 cm^2, 2.00 mg patch
[9] = Table 13 # 3: 400 filaments/cm^2, 3 mJ/filament, 1.0 cm^2, 2.00 mg patch
[10] = Table 13 # 4: 100 filaments/cm^2, 4 mJ/filament, 1.0 cm^2, 2.00 mg patch
[11] = Table 13 # 5: 200 filaments/cm^2, 4 mJ/filament, 1.0 cm^2, 2.00 mg patch
[12] = Table 13 # 6: 400 filaments/cm^2, 4 mJ/filament, 1.0 cm^2, 2.00 mg patch
[13] = Table 15 # 1: 400 filaments/cm^2, 2 mJ/filament, 1.0 cm^2, 2.00 mg patch
[14] = Table 15 # 2: 400 filaments/cm^2, 3 mJ/filament, 1.0 cm^2, 2.00 mg patch
[15] = Table 15 # 3: 400 filaments/cm^2, 4 mJ/filament, 1.0 cm^2, 2.00 mg patch
[16] = Table 15 # 4: 400 filaments/cm^2, 5 mJ/filament, 1.0 cm^2, 2.00 mg patch
[17] = Table 17 #1: dose 0.50 mg, 4 mJ/filament, 1.0 cm^2, 400 filaments/cm^2
[18] = Table 17 # 2: dose 2.00 mg, 4 mJ/filament, 1.0 cm^2, 400 filaments/cm^2
[19] = Table 17 # 3: dose 3.00 mg, 4 mJ/filament, 1.0 cm^2, 400 filaments/cm^2
[20] = Table 17 # 5: dose 4.00 mg, 4 mJ/filament, 2.0 cm^2, 400 filaments/cm^2
[21] = Table 17 # 6: dose 4.00 mg, 5 mJ/filament, 1.5 cm^2, 400 filaments/cm^2
[22] = rat, blood, inhaled or intranasal

SMILES: CN(C)CCc1c[nH]c2ccc(C[C@H]3COC(=O)N3)cc12 [Zolmitriptan]
- BA ([1]; Group 1: 2 mg zolmitriptan, oral administration, absolute bioavailability against IV injection): 11.4%
- BA ([1]; Group 3: 2 mg zolmitriptan, intravenous injection, absolute bioavailability against IV injection (reference)): 100.0%
- BA ([1]; Group 4: 2 mg zolmitriptan, transdermal microporation (400 pores/cm^2, 5.2 mJ/filament, 1 cm^2), absolute bioavailability against IV injection): 71.4%
- AUC [1, 4]: 227 ng·h/mL
- Cmax [1, 4]: 74 ng/mL
- Tmax [1, 4]: 270 min
- AUC [1, 5]: 2000 ng·h/mL
- Cmax [1, 5]: 5020 ng/mL
- Tmax [1, 5]: 3 min
- Cmax [1, 6]: 577 ng/mL
- Tmax [1, 6]: 37.8 min
- AUC ([1]; topical or ocular, Group 4: 2 mg zolmitriptan, transdermal microporation (400 pores/cm^2, 5.2 mJ/filament, 1 cm^2; patch with sucrose 0.5 mg, AA 4 mg)): 1430 ng·h/mL
- Skin irritation relief ± SD (Days to recover to score 1) [2, 7]: 0.0 ± 0.0 days
- Skin irritation ± SD (Just after patch removal) [2, 7]: 0.8 ± 0.3
- Skin irritation relief ± SD (Days to recover to score 1) [2, 8]: 1.8 ± 0.8 days
- Skin irritation ± SD (Just after patch removal) [2, 8]: 2.2 ± 0.4
- Skin irritation relief ± SD (Days to recover to score 1) [2, 9]: 2.8 ± 1.3 days
- Skin irritation ± SD (Just after patch removal) [2, 9]: 1.9 ± 0.3
- Skin irritation relief ± SD (Days to recover to score 1) [2, 10]: 1.8 ± 0.5 days
- Skin irritation ± SD (Just after patch removal) [2, 10]: 1.6 ± 0.3
- Skin irritation relief ± SD (Days to recover to score 1) [2, 11]: 3.0 ± 1.9 days
- Skin irritation ± SD (Just after patch removal) [2, 11]: 2.1 ± 0.7
- Skin irritation relief ± SD (Days to recover to score 1) [2, 12]: 3.2 ± 0.8 days
- Skin irritation ± SD (Just after patch removal) [2, 12]: 2.1 ± 0.3
- Skin irritation relief ± SD (Days to recover to score 1) [2, 13]: 2.3 ± 1.2 days
- Skin irritation ± SD (Just after patch removal) [2, 13]: 1.8 ± 0.3
- Skin irritation relief ± SD (Days to recover to score 1) [2, 14]: 2.8 ± 1.3 days
- Skin irritation ± SD (Just after patch removal) [2, 14]: 1.9 ± 0.3
- Skin irritation relief ± SD (Days to recover to score 1) [2, 15]: 3.2 ± 0.8 days
- Skin irritation ± SD (Just after patch removal) [2, 15]: 2.1 ± 0.3
- Skin irritation relief ± SD (Days to recover to score 1) [2, 16]: 2.6 ± 1.7 days
- Skin irritation ± SD (Just after patch removal) [2, 16]: 2.3 ± 0.3
- Skin irritation relief ± SD (Days to recover to score 1) [2, 17]: 2.5 ± 1.0 days
- Skin irritation ± SD (Just after patch removal) [2, 17]: 1.6 ± 0.5
- Skin irritation relief ± SD (Days to recover to score 1) [2, 18]: 3.2 ± 0.8 days
- Skin irritation ± SD (Just after patch removal) [2, 18]: 2.1 ± 0.3
- Skin irritation relief ± SD (Days to recover to score 1) [2, 19]: 3.0 ± 0.5 days
- Skin irritation ± SD (Just after patch removal) [2, 19]: 2.0 ± 0.0
- Skin irritation ± SD (Just after patch removal) ([2]; Table 17 # 4: dose 4.00 mg, 4 mJ/filament, 1.5 cm^2, 400 filaments/cm^2): 2.1 ± 0.3
- Skin irritation relief ± SD (Days to recover to score 1) [2, 20]: 4.3 ± 0.9 days
- Skin irritation ± SD (Just after patch removal) [2, 20]: 2.0 ± 0.0
- Skin irritation relief ± SD (Days to recover to score 1) [2, 21]: 5.5 ± 1.9 days
- Skin irritation ± SD (Just after patch removal) [2, 21]: 1.9 ± 0.3
- BA ([3]; intranasal administration, absolute bioavailability against IV injection): 12.0%
- AUC [3, 22]: 239 ng·h/mL
- Cmax [3, 22]: 127 ng/mL
- Tmax [3, 22]: 2.25 h
